Data set [1] is described as follows: MTT anti-proliferation assay, non-tumorigenic cells. It is filed as cell-based. The note with it: human, non-tumorigenic MCF-10A cells, 24 h treatment. As to the method: Initial experiments were performed for evaluation of growth inhibition by the new compounds against six human breast cancer cell lines, including MCF-7 (ER+/PR+, HER-2-), BT474 (ER+/PR+, HER-2+), SKBR-3 (ER-/PR-/HER-2+), MDA-MB-436 (ER-/PR-/HER-2-), MDA-MB-231 (ER-/PR-/HER-2-), MDA-MB-468 (ER-/PR-/HER-2-) and non-tumorigenic MCF-10A cells. After 24 h treatment by the obtained compounds, the inhibition was assessed and the IC50 was summarized. […] Subsequently, the inhibition of STAT3 activation by PMM-172 and Stattic was evaluated using a dual-luciferase assay.
The anti-proliferative activities of the prepared compounds against MCF-7 (ER+/PR+, HER-2-), BT474 (ER+/PR+, HER-2+), SKBR-3 (ER-/PR-/HER-2+), MDA-MB-436 (ER-/PR-/HER-2-), MDA-MB-231 (ER-/PR-/HER-2-), MDA-MB-468 (ER-/PR-/HER-2-) and non-tumorigenic MCF-10A cell lines were evaluated using a standard (MTT)-based colorimetric assay with some modification. Cell lines were grown to log phase in DMEM supplemented with 10% fetal bovine serum. Cell suspensions were prepared and 100 μL/well dispensed into 96-well plates giving 10^4 cells/well. The subsequent incubation was permitted at 37 °C, 5% CO2 atmosphere for 24 h to allow the cells to reattach. Subsequently, cells were treated with the target compounds at increasing concentrations in the presence of 10% FBS for 24 h. Then, cell viability was assessed by the conventional 3-(4, 5-dimethylthiazol-2-yl)-2, 5-diphenyltetrazolium bromide (MTT) reduction assay and carried out strictly according to the manufacturer instructions. The absorbance (OD570) was read on an ELISA reader (Tecan, Austria). In all experiments, three replicate wells were used for each drug concentration. Each assay was carried out for at least three times.
(Tetrazolium assays rely on reduction of a dye to a coloured formazan, in cell work by metabolically active cells.)

Another data set concerns MDA-MB-231 cells. The experiment in a line: Annexin V/PI double staining apoptosis assay (flow cytometry). It is filed as cell-based, human. The note with it: for percentage of cell apoptosis (early and late apoptotic cells): 24 h, MDA-MB-231, control 3.12%. As to the method: To determine whether PMM-172 induced apoptosis, Annexin V/PI double staining assay was conducted. MDA-MB-231 cells were treated with various concentrations of PMM-172 for 24 h, and the percentage of apoptotic cells was markedly elevated in a dose-dependent manner. Likewise, MDA-MB-231 cells were treated with corresponding doses of Stattic. […] The percentages of cell apoptosis 3.12%, 8.12%, 16.81%, 62.74% corresponded to the concentration of PMM-172 0, 2, 4 and 8 μM, respectively, including both the early and the late apoptotic cells. Clearly, PMM-172 can cause cell apoptosis more effectively than Stattic. Moreover, an extend time-course apoptosis analysis of MDA-MB-231 cells treated with 4 μM PMM-172 was carry out. […] To further assess the pro-apoptotic effect of PMM-172, we evaluated the cleavage of poly (ADP-ribose) polymerase (PARP) and caspase 3 in MDA-MB-231 cells after 24 h treatment with PMM-172. In this case, the active form of PARP involved in DNA repair and programmed cell death is considered as the hallmark of apoptosis.
Figure 4 The effect of PMM-172 on the cell apoptosis of MDA-MB-231 cells. (A) MDA-MB-231 cells were treated with various concentrations of PMM-172 or Stattic for 24 h, or treated with 4 μM PMM-172 for different time. Apoptosis was analyzed by flow cytometry by using Annexin V/PI double staining. (B) The percentage of apoptotic cells in MDA-MB-231 cells treated with various concentrations of PMM-172 for 24 h. (C) The percentage of apoptotic cells in MDA-MB-231 cells treated with 4 μM PMM-172 for different time. (D) The percentage of apoptotic cells in MDA-MB-231 cells treated with various concentrations of Stattic for 24 h. (E) PARP and caspase 3 cleavage in MDA-MB-231 cells after treated with various concentrations of PMM-172 for 24 h were detected by using Western blot analysis. The relative expression level was analyzed by Image J software. […]
Approximately 10^5 cells/well were plated in a 24 well plate and allowed to adhere. […] The samples were then analyzed by a FACSCalibur flow cytometer (Becton Dickinson, San Jose, CA, USA).
(A flow cytometer gives signals particle by particle.)

The source of these data is PMC5460289, “Identification of New Shikonin Derivatives as Antitumor Agents Targeting STAT3 SH2 Domain” (Scientific Reports, 2017).

The CC50 is the concentration that lowers cell viability or growth by half. Low values mean greater toxicity to the cells, high ones lower toxicity to the cells.

The compound `COc1cc(OC)cc(-c2nnc(SCC(=O)O[C@H](CC=C(C)C)C3=CC(=O)c4c(O)ccc(O)c4C3=O)o2)c1` [PMM-172, (R)-1-(5,8-dihydroxy-1,4-dioxo-1,4-dihydronaphthalen-2-yl)-4-methylpent-3-en-1-yl 2-((5-(3,5-dimethoxyphenyl)-1,3,4-oxadiazol-2-yl)thio)acetate] returned a CC50 at 24 h in data set [1] of 95.4 ± 0.62 µM. Also, the “percentage of cell apoptosis (early and late apoptotic cells)” value with MDA-MB-231 cells (4 μM) was 16.81%; in the data set with MDA-MB-231 cells (8 μM), 62.74%. Further, in the data set on MDA-MB-231 cells (MDA-MB-231, Annexin V/PI), the induction of apoptosis result was “induced apparent apoptosis in MDA-MB-231 cells in dose- and time- dependent manners”.
